From patent US12397037B2, “Methods and compositions for immunomodulation” (CHILDREN'S MEDICAL CENTER CORPORATION, priority 2014, dated 2025)

Experiments:
VEGF = VEGF protein in conditioned media by ELISA, U87MG cells; assay type: cell-based, human
Source text: The VEGF-A (DVE00) ELISA kit was obtained from R&D Systems (Minneapolis, MN). […] Desferrioxamine (DFO) was purchased from Sigma-Aldrich, and the MEK inhibitor (U0126) was purchased from EMD-Millipore (Billerica, MA). pGL4.74 [hRluc/TK] vector (Promega Madison, WI) was used as an internal control in luciferase assay.

VEGF promoter = VEGF promoter luciferase assay in U87MG cells; assay type: cell-based, human; conditions: DFO 250 μM, 18 hours
Method: FIGS. 31A-31B depict U87MG cells transiently co-transfected with a full-length human VEGF promoter luciferase plasmid and a pGL4.74 [hRluc/TK] plasmid as an internal control. Cells were treated with SEMA3F (640 ng/ml for 30 minutes) prior to the addition of DFO (250 μM) or the culture of cells in a hypoxia chamber (1% 02). After 18 hours, VEGF promoter luciferase activity was analyzed. FIG. 31C depicts a graph of U87MG cells transiently cotransfected with our VEGF promoter luciferase and pGL4.74 [hRluc/TK] plasmids and with either a pcDNA3.1 empty vector or our constitutively active Akt (2DAkt). The cells were treated with SEMA3F for 30 minutes prior to the addition of DFO. After 18 hours, VEGF promoter luciferase activity was analyzed. FIG. 31D depicts a graph of parental U87MG cells treated with SEMA3F, rapamycin (10 nM), Torin 1 (10 nM) alone or in combination as indicated for 30 minutes prior to the addition of DFO, and culture supernatants were collected after 18 hours; VEGF protein levels were analyzed by ELISA. In each panel data are representative of 3 independent experiments. Bar graphs represent the mean±SD of n=3 experiments performed in triplicate, *, p<0.01 vs. control.
SEMA3F inhibits hypoxia-induced production of VEGF via the mTOR pathway. The local expression and regulation of VEGF is key to many physiological and pathological processes (40, 41). These findings indicate that SEMA3F can target the transcriptional activation of VEGF via its ability to target mTOR kinase activity (36, 42). To test the effect of SEMA3F on the regulation of VEGF expression, U87MG cells were transfected with a full-length 2.6 kb VEGF promoter-luciferase construct and exposed to the hypoxia mimetic agent desferrioxamine (DFO) or hypoxia (1% 02). […] To test the relative effect of SEMA3F on mTORC1/C2, U87MG cells transiently co-transfected with the 2DAkt construct and the full length VEGF promoter reporter construct, and the cells cultured in the absence or presence of SEMA3F. […] Finally, the effect of SEMA3F on the secretion of VEGF into conditioned media (by ELISA) was determined in the absence or presence of DFO.
Transfection and Luciferase assay: U87MG cells were transiently transfected with plasmid constructs (pcDNA3.1, WT mTOR, 2DAkt, VEGF luciferase reporter plasmid or pGL4.74 [hRluc/TK]) as indicated using Lipofectamine 2000 reagent (Life Technologies) according to the manufacturer's instructions. After 18 hours, cells were treated as outlined in each experimental design. VEGF promoter activity was analyzed using a Dual-Luciferase Reporter Assay System (Promega), and luciferase activity was normalized by Renilla luciferase as an internal control.

[1] = tested on: glioblastoma cells and EC; conditions: reference 12; cited from earlier work
U87MG cells = assay: Western blot of PI-3K/Akt-mTOR and MAPK signaling in U87MG cells; assay type: cell-based, human; conditions: U87MG cells
Method: U87MG which express NRP-2 were used for this assay.
To determine the effect of SEMA3F on intracellular signaling responses, levels of phosphokinases in the NRP2-expressing human glioblastoma cell line U87MG were profiled.
Western blotting: Proteins within each sample were separated by SDS-PAGE and transferred to nitrocellulose membranes. The membranes were blocked with 4% skimmed milk in TBS-T (0.1% Tween 20 in tris-buffered saline [TBS]) for 30 minutes, followed by incubation with the primary antibody. After washing with TBS-T, membranes were incubated with the appropriate horseradish peroxidase-conjugated secondary antibody, and immunoreactivity was detected by using ECL detection reagents.

[2] = rapamycin alone 10 nM for 90 minutes, vs untreated

With `CC(=O)N(O)CCCCCNC(=O)CCC(=O)N(O)CCCCCNC(=O)CCC(=O)N(O)CCCCCN` [DFO, desferrioxamine, reference compound] the “increase of VEGF production” value (VEGF; DFO, compared to untreated cells) was 160% and the “induction of VEGF promoter activity” value (VEGF promoter) was 16 fold.
In the case of `Cc1ccc(NC(=O)c2ccc(CN3CCN(C)CC3)cc2)cc1Nc1nccc(-c2cccnc2)n1` [Gleevec, imatinib], the “SEMA3-mediated loss of stress fiber formation and motility” value [1] is listed as “abrogates SEMA3-mediated loss of stress fiber formation and motility”.
In the case of `CCC(=O)N1CCN(c2ccc(-n3c(=O)ccc4cnc5ccc(-c6cnc7ccccc7c6)cc5c43)cc2C(F)(F)F)CC1` [Torin 1], the “VEGF levels, combination of SEMA3F and Torin 1” value (VEGF; DFO, compared to SEMA3F or Torin 1 alone) is reported as “slightly (but significantly p<0.05) inhibited VEGF levels” and the “DFO-induced VEGF protein secretion” value (VEGF; SEMA3F, rapamycin 10 nM or Torin 1 10 nM, 30 minutes prior to DFO, supernatants after 18 hours) is reported as “significantly reduced”.
In the case of `N#CC(=C(/N)Sc1ccccc1N)/C(C#N)=C(\N)Sc1ccccc1N` [U0126, reference compound], the “effect of MEK inhibitor on SEMA3F regulation of pAkt” value (U87MG cells; U0126 10 μM 30 minutes prior to SEMA3F 640 ng/ml) is reported as “did not modulate”.
In the case of `CO[C@H]1C[C@@H]2CC[C@@H](C)[C@@](O)(O2)C(=O)C(=O)N2CCCC[C@H]2C(=O)O[C@H]([C@H](C)C[C@@H]2CC[C@@H](O)[C@H](OC)C2)CC(=O)[C@H](C)/C=C(\C)[C@@H](O)[C@@H](OC)C(=O)[C@H](C)C[C@H](C)/C=C/C=C/C=C/1C` [rapamycin, reference compound], the “induction in the level of pAkt (S473)” value (U87MG cells; [2]) is reported as 2.0 fold and the “induction in the level of pAkt (T308)” value (U87MG cells; [2]) is reported as 1.9 fold.
